One test deals with intracranial U87 glioma. As to the kind of experiment: Kaplan-Meier survival of intracranial glioma bearing nude mice. It is filed as in vivo. The note with it: n = 8. As to the method: The intracranial glioma bearing mice were used to evaluate the anti-glioma efficacy of various therapeutic regimen.
Concurrent combination chemotherapy has been emerging as a promising approach to improve the efficacy of cancer therapy [29]-[31]. Thus, ^DWVAP Micelle/PTL was used in combination with TMZ and ^DWVAP Micelle/PTX respectively in the present study. For TMZ dosage regimen, mice were randomly divided into four groups (n = 8) and treated with 100 μL of saline, ^DWVAP Micelle/PTL (5 mg/kg), TMZ (10 mg/kg) and ^DWVAP Micelle/PTL plus TMZ (5 mg/kg and 10 mg/kg, respectively) via oral gavage or tail vein. […] Compared with TMZ, the combinational therapy prolonged the median survival time by 2.10 times (Figure 6A). […] The slices were also stained with anti-CD133 antibody to quantify glioma stem cells. […]
Figure 6 Kaplan-Meier survival curves of intracranial glioblastoma-implanted nude mice treated with different regimens. […] Quantification of angiogenesis inhibition in tumors with different formulations in comparison to saline group (D). […] Quantification of TUNEL positive cells in tumors with different formulations in comparison to saline group (F). […] Quantification of tumor stem cell inhibition in tumors with different formulations in comparison to saline group (H). […]

Test [1] deals with NF-κB p65 nuclear translocation in U87 cells. The test is described as follows: NF-κB activation and nuclear translocation assay (immunofluorescence). Type of test: cell-based. The note with it: 24 h treatment, Figure 7D-F. The source says:
NF-κB plays a pivotal role in tumorigenesis through multiple signaling pathways. Aberrant activation of NF-κB has been observed in various types of cancer. Constitutive activation of NF-κB often causes bad response or resistance to chemotherapeutics, tumor recurrence, and poor outcome of treatment. Conversely, inhibition of NF-κB could sensitize the glioma cells to chemotherapy. The combination of PTL with PTX and TMZ in the present study enhanced anti-glioma efficacy in experimental animals. Since PTL is a potent inhibitor of NF-κB, the inhibitory activities of different PTL formulations on NF-κB pathway were examined. Immunofluorescence was used to detect NF-κB activation and nuclear translocation. After treatment with different formulations for 24 h, cells were processed for confocal fluorescence microscopic imaging. […] In addition, we also analyzed the p65 protein level in the nucleus of U87 cells by western blotting (Figure S7) and the results were consistent with immunofluorescence.
NF-κB activation and nuclear translocation assay was performed according to the reagent manufacturer's instructions (Beyotime Biotech, China). Briefly, cells were seeded in four-well disk and then treated with different drug loaded micelles or free drug alone or in combinations for 24 h. […] The protein concentrations were quantified using BCA Protein Assay Kit (Thermo Fisher Scientific). […]

The test system of another test is U87 cells. The test is described as follows: Cellular internalization of fluorescein labelled peptides in U87 cells (flow cytometry). It is filed as cell-based. The note with it: 4 hours, Figure S1. The protocol: (§1) The targeting ability of ^DWVAP was evaluated in primary rat brain capillary endothelial cells (BCECs), HUVECs and U87 cells. […] OPC cells were previously proven as a cell line of glioma cell-of-origin with under-appreciated proliferative and plastic potentials. OPC cells were used here to evaluate the GSCs targeting effect of the developed peptides. […] In vivo, near-infrared dye Cy7 was conjugated with peptides and the conjugates were intravenously injected via the tail vein to test the targeting effect of ^DWVAP.
(§2) Brain capillary endothelial cells (BCEC), U87 cells and HUVEC cells were used to investigate the peptides targeting ability since they were main component of BBB, tumor and tumor vessels respectively. OPC cells were used to evaluate the glioma stem cell targeting ability in vitro [38]. Cellular uptake behavior was observed by the confocal microscope and the fluorescent intensity was captured by flow cytometry 4 hours after pre-incubation with different fluorescein labelled peptides.

The test system of a further test is HUVECs. The test is described as follows: Cellular internalization of fluorescein labelled peptides in HUVECs (flow cytometry). The note with it: 4 hours, Figure S1. It is filed as cell-based, human. The protocol:
as §1, §2

For another test, the system named is OPC cells. The test is described as follows: Cellular internalization of fluorescein labelled peptides in OPC cells (GSC targeting). It is filed as cell-based. The note with it: confocal microscopy, Figure 2E. The protocol:
as §1, §2

The target of test [2] is T1, Recombinant human GRP78 protein (human, UniProt P11021 19-654).
T1 construct: GRP78, human, recombinant; No catalogue number, tag or limits printed; source: bought: Abcam
T1 sequence (P11021 19-654): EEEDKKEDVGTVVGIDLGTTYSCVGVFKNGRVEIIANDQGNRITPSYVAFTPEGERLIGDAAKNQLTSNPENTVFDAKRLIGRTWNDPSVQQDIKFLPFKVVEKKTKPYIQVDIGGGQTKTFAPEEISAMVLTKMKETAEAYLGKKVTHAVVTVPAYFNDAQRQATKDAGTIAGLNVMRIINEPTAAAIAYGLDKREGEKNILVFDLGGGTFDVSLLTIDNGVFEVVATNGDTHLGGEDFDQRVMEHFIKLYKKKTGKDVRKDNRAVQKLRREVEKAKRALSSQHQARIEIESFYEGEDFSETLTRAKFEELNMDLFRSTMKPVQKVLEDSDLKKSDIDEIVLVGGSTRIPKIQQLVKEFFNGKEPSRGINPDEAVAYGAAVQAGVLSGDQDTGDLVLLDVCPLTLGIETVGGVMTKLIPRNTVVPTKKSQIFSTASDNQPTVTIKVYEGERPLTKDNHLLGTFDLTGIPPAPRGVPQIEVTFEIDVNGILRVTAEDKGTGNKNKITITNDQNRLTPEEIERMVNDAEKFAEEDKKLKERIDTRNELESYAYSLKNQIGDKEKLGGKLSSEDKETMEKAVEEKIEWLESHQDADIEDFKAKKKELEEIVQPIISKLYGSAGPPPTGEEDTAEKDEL
The test is described as follows: SPR; Biacore T200; recombinant human GRP78 amine-coupled to a CM5 sensor chip; peptides in 2-fold serial dilution injected at 30 µL/min; buffer HBS-N or HBS-EP (methods). The conditions noted are these: both partners purified. For orientation: SPR reads the build-up and loss of mass on a sensor chip optically.

Where a SMILES comes first, the peptide text is derived from it. Where no end group is shown, it is not given here. [ ]: non-standard residue; d: D form. Ahx = NCCCCCC(=O)O

For `CC(=O)O[C@H]1C(=O)[C@@]2(C)[C@H]([C@H](OC(=O)c3ccccc3)[C@]3(O)C[C@H](OC(=O)[C@H](O)[C@@H](NC(=O)c4ccccc4)c4ccccc4)C(C)=C1C3(C)C)[C@]1(OC(C)=O)CO[C@@H]1C[C@@H]2O` [Taxol, Paclitaxel], the median survival time in the test on intracranial U87 glioma (Figure S5A, four injections, 6 mg/kg PTX each, at 6, 9, 12 and 15 days after implantation) is 20 days.

`C=C1C(=O)O[C@H]2[C@H]1CC/C(C)=C/CC[C@@]1(C)O[C@@H]21` [PTL, Parthenolide]: the p65 nuclear translocation result in test [1] was “inhibition of p65”. Moreover, the median survival in the test on intracranial U87 glioma (Figure S5B, 5 mg/kg PTL at 6, 8, 10, 12 and 14 days post-tumor implantation, saline 29.5 days) came out at 32 days.

For the molecule `CC(C)[C@@H](NC(=O)[C@@H](CCCNC(=N)N)NC(=O)[C@H](NC(=O)[C@@H](CC(N)=O)NC(=O)[C@H](N)CO)[C@H](C)O)C(=O)N[C@H](C)C(=O)N1CCC[C@@H]1C(=O)N[C@H](CS)C(=O)O` [^DVAP] (HELM PEPTIDE1{[dS].[dN].[dT].[dR].[dV].[dA].[dP].[dC]}$$$$V2.0; N-terminus and C-terminus assumed), the “fluorescence-positive U87 cells” value in the test on U87 cells is reported as “More than 90%”. Further, the “fluorescence-positive HUVECs” value in the test on HUVECs is listed as > 80%. In addition, the “uptake by OPC cells” value in the test on OPC cells is on record as “effectively taken up”.

B1: ^DVAP peptide (peptide)
peptide: [dS][dN][dT][dR][dV][dA][dP][dC]
notes: all-D peptide ligand of GRP78; also called ^DS^DN^DT^DR^DV^DA^DP; ^DS^DN^DT^DR^DV^DA^DP^DC; source: synthetic peptide, bought: Karebay Biochem
A word on the Kd: it is the concentration at which binding is half-saturated. B1: the Kd in test [2] turned out to be 102 nM.

B2: "Y-shaped" ^DWVAP peptide (peptide)
peptide: [dS][dN][dT][dR][dV][dA][dP][dC][Ahx][dW][dS][dW]G[dP][dY][dS]
modifications: not fully specified
notes: ^DVAP stretch (all-D) with D-Cys, ligand of GRP78; ^DWSW stretch (all-D), quorum-sensing peptide; joined to the first stretch through aminocaproic acid (Ahx), which has no one-letter code; also called ^DWVAP-Cys; ^DS^DN^DT^DR^DV^DA^DP^DC-Ahx-^DW^DS^DW^DG^DP^DY^DS; source: synthetic peptide (solid phase peptide synthesis)
Regarding B2, in test [2], the Kd stood at 686 nM.

The values are drawn from article PMC7086363, “All-stage precisional glioma targeted therapy enabled by a well-designed D-peptide” (Theranostics, 2020).
